Columns and labels:
[1] = tested on: peritoneal macrophages; assay type: cell-based, mouse
[2] = tested on: type I IFN; assay type: cell-based, mouse; details: Heedless macrophages, 100 ng/ml, 4 hours
[3] = tested on: NF-κB, ERK1 and ERK2; assay: Immunoblot analysis of IκB and ERK (p42/44) phosphorylation in macrophages; assay type: cell-based, mouse; details: Heedless macrophages, lipid A 100 ng/ml
[4] = tested on: IRF-3; assay: Immunoblot analysis of IRF-3 activation in macrophages; assay type: cell-based, mouse; details: heedless mutant cells, lipid A 100 ng/ml
[5] = tested on: peritoneal macrophages; details: Trif mutant macrophages; cited from earlier work

Substance | TNF production in response to the inducer: effect of the Heedless mutation [1] | other results
MALP-2 | partial impairment of the response | 
Pam2CSK4 | partial impairment of the response | 
Pam3CSK4 | normal | 
lipid A |  | signaling via the MyD88-independent pathway (type I IFN production): effect of the Heedless mutation [2]: prevented; activation of NF-κB and phosphorylation of ERK1 and ERK2 [3]: occurred normally; formation of the IRF-3 phosphodimer [4]: not detected; lipid A-induced TNF production [5]: rather severe impairment
lipoteichoic acid | partial impairment of the response | 
poly IC | normal | 

From patent publication US20110214194A1 (priority 2005, published 2011)
